Test results reported in article doi:10.1101/2020.10.22.350827v1 (biorxiv, 2020).
Residue numbers refer to the chain shown, from its start.

Key:
[1] = target: T1, Nluc-A1R (adenosine A1 receptor) N70A (Homo sapiens, UniProt P30542, N70A); assay: cell-based; design: species or system HEK 293
T1 sequence (P30542 1-326 N70A): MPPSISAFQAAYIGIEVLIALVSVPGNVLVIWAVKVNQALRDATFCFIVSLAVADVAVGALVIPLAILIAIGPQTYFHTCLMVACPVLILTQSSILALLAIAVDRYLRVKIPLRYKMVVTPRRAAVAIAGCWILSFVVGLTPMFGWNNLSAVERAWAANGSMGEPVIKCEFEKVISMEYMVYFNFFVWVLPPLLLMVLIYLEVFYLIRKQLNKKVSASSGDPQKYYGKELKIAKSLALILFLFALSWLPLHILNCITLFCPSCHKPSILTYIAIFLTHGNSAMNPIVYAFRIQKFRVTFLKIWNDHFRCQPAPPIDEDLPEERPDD

[2] = target: T2, Nluc-A1R (adenosine A1 receptor) N148A (Homo sapiens, UniProt P30542, N148A); assay: cell-based; design: species or system HEK 293
T2 sequence (P30542 1-326 N148A): T1 sequence (P30542 1-326 N70A) with A70N, N148A

`OC[C@H]1O[C@@H](n2cnc3c(N[C@@H]4CCC[C@H]4O)ncnc32)[C@H](O)[C@@H]1O` [compound 6, HOCPA] gave a Ki [1] of 891 nM and a Ki [2] of 708 nM.
